According to patent US20250000881A1, “TREATMENT OF TREATMENT RESISTANT […] PSILOCYBIN” (COMPASS […], priority 2021, published 2025):

What was measured:
adult subjects with TRD = assay: Phase 2b trial in TRD: participants starting new treatment for depression; assay type: in vivo, human
Method: All subjects were asked to remain off their antidepressant medications for at least 3 weeks following the psilocybin session until the primary endpoint assessment, or longer. Rescue medications were allowed and described in the Rescue Medications section below. Subjects who restarted their antidepressant medications during the first 3 weeks after the psilocybin treatment administration were assessed for reasons of resuming their medications and followed until 12 weeks post-psilocybin administration.

[1] = system: participants with TRD from Example 2; assay: Long term follow-up study: MADRS responders, remitters, sustained responders to week 52; assay type: in vivo, human
Method: The following example is a long term follow up of study of a sustained responder population from Example 2. 58 participants from Example 2 were selected for a long term 52 week follow up study. Of the 58 patients, 22 received a 25 mg dose of psilocybin, 19 received a 10 mg dose of psilocybin, and 17 received a 1 mg dose of psilocybin. […] None of the patients in this study received treatment for depression before their week 12 MADRS visit in Example 2. Patients were analyzed for a change in MADRS total score from Baseline to 12, 16, 20, 24, 28, 40, and 52 weeks.
The secondary endpoint of this study was to determine the change in MADRS total score from Baseline to 12, 16, 20, 24, 28, 40, and 52 weeks post treatment. […] Note, “n*” changed to account for subjects that dropped out the long term study.

CN(C)CCc1c[nH]c2cccc(OP(=O)(O)O)c12 [COMP360, psilocybin]
Participants started new treatment for depression (adult subjects with TRD; 1 mg (N = 79), Day 2): 0 n
Participants started new treatment for depression (adult subjects with TRD; 10 mg (N = 75), Day 2): 0 n
Participants started new treatment for depression (adult subjects with TRD; 25 mg (N = 79), Day 2): 0 n
Participants started new treatment for depression (adult subjects with TRD; 25 mg (N = 79), Week 1): 0 n
Participants started new treatment for depression (adult subjects with TRD; Overall (N = 233), Day 2): 0 n
MADRS remitters (MADRS total score≤10) ([1]; 1 mg (N = 17), Week 3): 0/11
MADRS remitters (MADRS total score≤10) ([1]; 1 mg (N = 17), Week 9): 0/8
MADRS relaxed sustained responders ([1]; 1 mg (N = 17), Week 12): 0/7
MADRS remitters (MADRS total score≤10) ([1]; 1 mg (N = 17), Week 12): 0/7
MADRS sustained responders (response at Week 3 and all subsequent visits) ([1]; 1 mg (N = 17), Week 12): 0/7
MADRS relaxed sustained responders ([1]; 1 mg (N = 17), Week 16): 0/5
MADRS remitters (MADRS total score≤10) ([1]; 1 mg (N = 17), Week 16): 0/5
MADRS responders (≥50% reduction from baseline in MADRS total score) ([1]; 1 mg (N = 17), Week 16): 0/5
MADRS sustained responders (response at Week 3 and all subsequent visits) ([1]; 1 mg (N = 17), Week 16): 0/5
MADRS relaxed sustained responders ([1]; 1 mg (N = 17), Week 20): 0/4
MADRS remitters (MADRS total score≤10) ([1]; 1 mg (N = 17), Week 20): 0/4
MADRS sustained responders (response at Week 3 and all subsequent visits) ([1]; 1 mg (N = 17), Week 20): 0/4
MADRS sustained responders (response at Week 3 and all subsequent visits) ([1]; 1 mg (N = 17), Week 24): 0/4
MADRS relaxed sustained responders ([1]; 1 mg (N = 17), Week 28): 0/4
MADRS remitters (MADRS total score≤10) ([1]; 1 mg (N = 17), Week 28): 0/4
MADRS sustained responders (response at Week 3 and all subsequent visits) ([1]; 1 mg (N = 17), Week 28): 0/4
MADRS relaxed sustained responders ([1]; 1 mg (N = 17), Week 40): 0/4
MADRS sustained responders (response at Week 3 and all subsequent visits) ([1]; 1 mg (N = 17), Week 40): 0/4
MADRS relaxed sustained responders ([1]; 1 mg (N = 17), Week 52): 0/4
MADRS remitters (MADRS total score≤10) ([1]; 1 mg (N = 17), Week 52): 0/4
MADRS responders (≥50% reduction from baseline in MADRS total score) ([1]; 1 mg (N = 17), Week 52): 0/4
MADRS sustained responders (response at Week 3 and all subsequent visits) ([1]; 1 mg (N = 17), Week 52): 0/4
MADRS remitters (MADRS total score≤10) ([1]; 10 mg (N = 19), Week 16): 0/5
MADRS relaxed sustained responders ([1]; 10 mg (N = 19), Week 20): 0/3
MADRS sustained responders (response at Week 3 and all subsequent visits) ([1]; 10 mg (N = 19), Week 20): 0/3
MADRS sustained responders (response at Week 3 and all subsequent visits) ([1]; 10 mg (N = 19), Week 24): 0/3
MADRS sustained responders (response at Week 3 and all subsequent visits) ([1]; 10 mg (N = 19), Week 28): 0/4
MADRS sustained responders (response at Week 3 and all subsequent visits) ([1]; 10 mg (N = 19), Week 40): 0/5
MADRS sustained responders (response at Week 3 and all subsequent visits) ([1]; 10 mg (N = 19), Week 52): 0/5
MADRS relaxed sustained responders ([1]; 25 mg (N = 22), Week 40): 0/6
MADRS remitters (MADRS total score≤10) ([1]; 25 mg (N = 22), Week 40): 0/6
MADRS sustained responders (response at Week 3 and all subsequent visits) ([1]; 25 mg (N = 22), Week 40): 0/6
MADRS remitters (MADRS total score≤10) ([1]; 25 mg (N = 22), Week 52): 0/6
MADRS sustained responders (response at Week 3 and all subsequent visits) ([1]; 25 mg (N = 22), Week 52): 0/6
